Data taken from patent publication US9737505B2, “Prodrug of 1,1′-(1,6-dioxo-1,6-hexanediyl)bis-D-proline” (GlaxoSmithKline Intellectual Property Development Limited, priority 2014, dated 2017).
Like-named read-outs stand apart in the source and are kept apart here.

Legend:
[1] = Solubility in aqueous media; format: physicochemical; conditions: for solubility at 4 h: thermodynamic from solid, read-out: Solubility at 4 hour timepoint
Experimental: A known quantity of the compound of Formula (I) was weighed into a suitable vessel (e.g. a screw capped clear glass vial) and a known volume of the required media added (e.g. Simulated Gastric Fluid pH 1.6[SGF], Simulated Fed State Intestinal Fluid pH 6.5 [FeSSIF], Simulated Fasted State Intestinal Fluid pH 6.5 [FaSSIF], Water [Purified Water], or Britton-Robinson buffer). The compound was wetted with the media by vortex mixing for 30 seconds to 1 minute. The sample was then visually observed to ensure that undissolved solid remained present. The sample was transferred to a gentle mixer (such as a roller mixer) and allowed to agitate until the desired time point was reached. At appropriate times the sample was reassessed visually. If all the solid had dissolved the solubility was recorded as >x mg/ml where x is the known weight used divided by the volume added. If undissolved solid remained a portion of the sample was taken and centrifuged to remove the solid leaving a clear supernatant. The supernatant was diluted volumetrically with a suitable diluent to provide an analytical sample of suitable concentration for analysis. This diluted sample was then analysed by a suitable method such as HPLC against a standard(s) of known concentration. The solubility of the compound can then be calculated using a knowledge of the concentration of the standard, the relative response (e.g. peak areas) of the standard and the analytical sample described, and the dilution of the analytical sample.

[2] = Liver microsomal stability; format: in vitro ADME
Experimental: (§1) The assay was designed for determining stability of compound in microsomal matrix. Compound (Compound of Formula (I)) was dissolved in DMSO at 1 mg/ml. Daughter solution was prepared in methanol/water (50/50) at 30.3 ng/ml. Microsomes (from Xenotech) were diluted at 0.625 mg proteins per ml in phosphate buffer 50 mM pH 7.4.
Pre-Incubation consisted of warming microsomal solution 395 μl with 100 μl NaHCO3 (2%) at 37° C. for 7 min. Incubation was started with the addition of 5 μl of daughter solution. 50 μl aliquots of mixture were taken at 0, 3, 6, 12 and 30 min and quenched with 150 μl acetonitrile containing internal standard.
(§2) After 10 min centrifugation at 4000 rpm, 2 μl of samples were injected into the liquid chromatography system and eluted on a Ascentis C18 column (50×2.1 mm id, 2.7 μm) with 0.1% formic acid in water (A) and 0.1% formic acid in acetonitrile (B), using the following 2 minute elution gradient: 5 to 95% B over 1.2 min, 95% B over 0.6 min and 0.1 min for re-equilibrate column, at 0.5 mL/min at 50° C.
Samples were analysed by Mass Spectrometry with an electrospray source, in positive mode and with following mass transitions: • Compound of Formula (I): 657 to 384 • Monoester of CPHPC: 499 to 226 • CPHPC: 341 to 226 […]
In vitro liver microsomal activity of was assessed using the protocol detailed above (Intestine and Liver Microsomal Assay protocol).

CYP1A2 = molecular target: T1, CYP1A2 (Homo sapiens, UniProt P05177); assay: Cytochrome p450 inhibition assay (bactosomes, fluorogenic substrate ER); format: biochemical; conditions: recombinant human CYP (Cypex bactosomes)
T1 construct: purchased Cypex; host or cells: bactosomes (bacterial membranes)
T1 sequence (P05177 1-516): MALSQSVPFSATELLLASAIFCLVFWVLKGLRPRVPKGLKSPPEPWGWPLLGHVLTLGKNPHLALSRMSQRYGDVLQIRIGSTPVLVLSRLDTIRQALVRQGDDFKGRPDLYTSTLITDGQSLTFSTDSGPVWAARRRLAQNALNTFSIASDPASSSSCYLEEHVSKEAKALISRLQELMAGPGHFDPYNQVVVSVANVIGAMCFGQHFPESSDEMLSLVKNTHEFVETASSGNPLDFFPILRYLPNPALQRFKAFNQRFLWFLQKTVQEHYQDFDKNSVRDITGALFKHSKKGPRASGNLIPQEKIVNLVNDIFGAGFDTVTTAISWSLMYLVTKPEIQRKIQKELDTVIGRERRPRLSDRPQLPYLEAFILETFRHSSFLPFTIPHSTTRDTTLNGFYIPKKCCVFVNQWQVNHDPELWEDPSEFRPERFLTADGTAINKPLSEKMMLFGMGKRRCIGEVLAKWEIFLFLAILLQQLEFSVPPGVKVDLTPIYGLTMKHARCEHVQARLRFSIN
Experimental: (§3) The assay was designed to evaluate inhibition on cytochrome P450 (CYP) 3A4, 2C9, 2C19, 1A2 and 2D6 enzymes from bactosomes source using fluorogenic substrates. Compound (compound of Formula (I) or Comparator Compound) was dissolved in methanol at 1.65 mM. Daughter solutions were prepared in methanol at 660, 264, 106, 42, 17, 6.8, 2.7, 1.1 and 0.43 μM. NADPH cofactor was prepared with Glucose-6-phosphate (7.8 mg), Glucose-6-phosphate dehydrogenase (6 units), NADP (1.7 mg) per 1 mL in NaHCO3 2%. Substrate preparation was as follows: • 7-Methoxy-4-triFluoromethyl Coumarin-3-Acetic acid ethyl ester (FCA): 12.5 mM in acetonitrile • EthoxyResorufin (ER): 0.05 mM in acetonitrile • 4-MethylaminoMethyl-7-Methoxy Coumarin (MMC): 2.5 mM in methanol • 3-Butyryl-7Methoxy Coumarin (BMC): 2.5 mM in DMSO • 7-BenzyloxyQuinoline (7BQ): 2.5 mM in acetonitrile • DiEthoxyFluorescein (DEF): 0.1 mM in acetonitrile Bactosomes (Cypex source) at the concentration of 10 mg of protein per ml were diluted in phosphate buffer 50 mM pH7.4: • 0.33 ml of bactosomes CYP2C9 with 23.8 ml of buffer and 0.11 ml of FCA • 0.33 ml of bactosomes CYP1A2 with 23.6 ml of buffer and 0.275 ml of ER • 0.33 ml of bactosomes CYP2D6 with 23.8 ml of buffer and 0.11 ml of MMC • 0.33 ml of bactosomes CYP2C19 with 23.8 ml of buffer and 0.11 ml of BMC • 0.33 ml of bactosomes CYP3[…] with 23.6 ml of buffer and 0.275 ml of 7BQ • 0.33 ml of bactosomes CYP3[…] with 23.6 ml of buffer and 0.275 ml of DEF Pre-Incubation consisted in mixing 5 μl of compound solution with 220 μl diluted bactosomes and warming it at 37° C. for 10 min. Incubation was started with the addition of 25 μl of NADPH. […]

[3] = Physical stability (hydrolysis) in phosphate buffer at various pHs; format: physicochemical; conditions: acidic environment (pH less than 7.0), room temperature
Experimental: The assay was designed for determining physical stability of compound in buffer at various pHs. Compound of Formula (I) was dissolved in DMSO at 1 mg/ml. Phosphate buffer (PBS) was prepared by mixing K2HPO4 50 mM and KH2PO4 50 mM solutions to obtain 4 buffers at pH 6.0, 7.0, 7.5, 8.0.
Stability studies were conducted at room temperature, and were started by the addition of 8 μl of DMSO solution to 792 μl of PBS 50 mM at pH 6.0, 7.0, 7.5 or 8.0 (1% DMSO). 75 μl of mixture was taken at 0, 1, 2, 4 and 24 h and 225 μl acetonitrile containing internal standard was added.
as §2, with “2” for “After 10 min centrifugation at 4000 rpm, 2”, “eluted with” for “eluted on”, “μm) and” for “μm)”, “following elution” for “following”, “2 min” for “2 minute elution”
Samples were analysed by Mass Spectrometry with an electrospray source and in positive mode and with following mass transitions: • Compound of Formula (I): 657 to 384 • Monoester of CPHPC: 499 to 226 • CPHPC: 341 to 226

CYP2C9 = molecular target: T2, CYP2C9 (Homo sapiens, UniProt P11712); assay: Cytochrome p450 inhibition assay (bactosomes, fluorogenic substrate FCA); format: biochemical; conditions: recombinant human CYP (Cypex bactosomes)
T2 construct: purchased Cypex; host or cells: bactosomes (bacterial membranes)
Experimental: as §3

CYP3A4 = molecular target: T3, CYP3A4 (Homo sapiens, UniProt P08684); assay: Cytochrome p450 inhibition assay (bactosomes, fluorogenic substrates 7BQ and DEF); format: biochemical; conditions: recombinant human CYP (Cypex bactosomes)
T3 construct: purchased Cypex; host or cells: bactosomes (bacterial membranes)
Experimental: The assay was designed to evaluate inhibition on cytochrome P450 (CYP) 3A4, 2C9, 2C19, 1A2 and 2D6 enzymes from bactosomes source using fluorogenic substrates. Compound (compound of Formula (I) or Comparator Compound) was dissolved in methanol at 1.65 mM. Daughter solutions were prepared in methanol at 660, 264, 106, 42, 17, 6.8, 2.7, 1.1 and 0.43 μM. NADPH cofactor was prepared with Glucose-6-phosphate (7.8 mg), Glucose-6-phosphate dehydrogenase (6 units), NADP (1.7 mg) per 1 mL in NaHCO3 2%. Substrate preparation was as follows: • 7-Methoxy-4-triFluoromethyl Coumarin-3-Acetic acid ethyl ester (FCA): 12.5 mM in acetonitrile • EthoxyResorufin (ER): 0.05 mM in acetonitrile • 4-MethylaminoMethyl-7-Methoxy Coumarin (MMC): 2.5 mM in methanol • 3-Butyryl-7Methoxy Coumarin (BMC): 2.5 mM in DMSO • 7-BenzyloxyQuinoline (7BQ): 2.5 mM in acetonitrile • DiEthoxyFluorescein (DEF): 0.1 mM in acetonitrile Bactosomes (Cypex source) at the concentration of 10 mg of protein per ml were diluted in phosphate buffer 50 mM pH7.4: • 0.33 ml of bactosomes CYP2C9 with 23.8 ml of buffer and 0.11 ml of FCA • 0.33 ml of bactosomes CYP1A2 with 23.6 ml of buffer and 0.275 ml of ER • 0.33 ml of bactosomes CYP2D6 with 23.8 ml of buffer and 0.11 ml of MMC • 0.33 ml of bactosomes CYP2C19 with 23.8 ml of buffer and 0.11 ml of BMC • 0.33 ml of bactosomes CYP3[…] with 23.6 ml of buffer and 0.275 ml of 7BQ • 0.33 ml of bactosomes CYP3[…] with 23.6 ml of buffer and 0.275 ml of DEF Pre-Incubation consisted in mixing 5 μl of compound solution with 220 μl diluted bactosomes and warming it at 37° C. for 10 min. Incubation was started with the addition of 25 μl of NADPH. Then fluorescence of substrate metabolite was read in a SAFIRE instrument (from Tecan) for 5 min: • FCA (2C9): Excitation at 410 nm and Emission at 510 nm • ER (1A2): Excitation at 530 nm and Emission at 590 nm • MMC (2D6): Excitation at 410 nm and Emission at 485 nm • BMC (2C19): Excitation at 410 nm and Emission at 465 nm • 7BQ (3A4H): Excitation at 410 nm and Emission at 530 nm • DEF (3A4L): Excitation at 485 nm and Emission at 530 nm Plotting of inhibition of substrate production against compound concentration allowed the determination of IC50 values.

CYP2D6 = molecular target: T4, CYP2D6 (Homo sapiens, UniProt P10635); assay: Cytochrome p450 inhibition assay (bactosomes, fluorogenic substrate MMC); format: biochemical; conditions: recombinant human CYP (Cypex bactosomes)
T4 construct: purchased Cypex; host or cells: bactosomes (bacterial membranes)
Experimental: as §3

CYP2C19 = molecular target: T5, CYP2C19 (Homo sapiens, UniProt P33261); assay: Cytochrome p450 inhibition assay (bactosomes, fluorogenic substrate BMC); format: biochemical; conditions: recombinant human CYP (Cypex bactosomes)
T5 construct: purchased Cypex; host or cells: bactosomes (bacterial membranes)
Experimental: as §3

[4] = Intestinal microsomal stability; format: in vitro ADME; conditions: 37° C., even after 60 minutes
Experimental: as §1
Pre-Incubation consisted of warming microsomal solution 395 μl with 100 μl NaHCO3 (2%) at 37° C. for 7 min. Incubation was started with the addition of 5 μl of daughter solution. […]
as §2
Samples were analysed by Mass Spectrometry with an electrospray source, in positive mode and with following mass transitions: • Compound of Formula (I): 657 to 384 • Monoester of CPHPC: 499 to 226 • CPHPC: 341 to 226
Controls were made to calculate percentage of disappearance of parent but also appearance of suspected metabolite, i.e. monoester and diacidic form.

[5] = substrate 7BQ, read-out: IC50 CYP3A4 (7BQ)
[6] = substrate DEF, read-out: IC50 CYP3A4 (DEF)

T3 sequence (P08684 whole entry): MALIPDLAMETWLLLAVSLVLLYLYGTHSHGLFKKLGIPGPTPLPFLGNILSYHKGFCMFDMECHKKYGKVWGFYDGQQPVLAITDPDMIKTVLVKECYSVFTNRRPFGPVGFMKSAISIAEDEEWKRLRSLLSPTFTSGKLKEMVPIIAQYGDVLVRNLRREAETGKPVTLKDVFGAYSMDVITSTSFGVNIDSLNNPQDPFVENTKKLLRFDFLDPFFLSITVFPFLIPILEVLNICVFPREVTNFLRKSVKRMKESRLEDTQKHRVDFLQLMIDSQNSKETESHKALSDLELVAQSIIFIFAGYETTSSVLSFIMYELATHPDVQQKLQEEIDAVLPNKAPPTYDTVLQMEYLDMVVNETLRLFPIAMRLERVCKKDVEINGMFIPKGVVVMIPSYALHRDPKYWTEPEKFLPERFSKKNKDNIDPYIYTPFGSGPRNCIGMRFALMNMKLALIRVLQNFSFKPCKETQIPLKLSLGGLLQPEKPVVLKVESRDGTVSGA
T2 sequence (P11712 whole entry): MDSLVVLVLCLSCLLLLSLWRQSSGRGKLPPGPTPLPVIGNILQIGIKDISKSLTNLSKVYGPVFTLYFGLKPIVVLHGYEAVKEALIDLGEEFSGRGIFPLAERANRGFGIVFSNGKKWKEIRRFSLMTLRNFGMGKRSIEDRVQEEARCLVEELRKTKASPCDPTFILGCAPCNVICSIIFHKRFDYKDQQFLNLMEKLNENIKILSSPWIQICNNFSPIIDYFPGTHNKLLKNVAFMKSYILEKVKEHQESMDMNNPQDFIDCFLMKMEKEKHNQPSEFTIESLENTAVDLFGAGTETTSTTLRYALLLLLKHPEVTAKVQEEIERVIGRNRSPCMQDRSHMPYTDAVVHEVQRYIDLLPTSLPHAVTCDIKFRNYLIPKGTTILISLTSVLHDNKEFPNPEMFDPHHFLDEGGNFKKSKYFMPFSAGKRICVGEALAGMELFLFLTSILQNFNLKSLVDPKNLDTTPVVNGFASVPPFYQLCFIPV
T4 sequence (P10635 whole entry): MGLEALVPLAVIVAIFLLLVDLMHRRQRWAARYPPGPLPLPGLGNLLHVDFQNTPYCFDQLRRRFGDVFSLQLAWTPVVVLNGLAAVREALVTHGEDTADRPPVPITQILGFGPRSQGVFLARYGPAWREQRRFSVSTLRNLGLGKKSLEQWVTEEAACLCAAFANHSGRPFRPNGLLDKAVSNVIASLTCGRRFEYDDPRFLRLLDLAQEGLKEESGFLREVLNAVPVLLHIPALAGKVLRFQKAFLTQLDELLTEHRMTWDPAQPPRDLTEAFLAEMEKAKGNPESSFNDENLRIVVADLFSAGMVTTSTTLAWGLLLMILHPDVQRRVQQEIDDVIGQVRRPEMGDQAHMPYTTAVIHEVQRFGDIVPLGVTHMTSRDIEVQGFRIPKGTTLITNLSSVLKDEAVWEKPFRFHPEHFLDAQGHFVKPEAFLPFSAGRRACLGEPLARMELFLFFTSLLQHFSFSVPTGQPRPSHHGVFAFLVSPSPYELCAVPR
T5 sequence (P33261 whole entry): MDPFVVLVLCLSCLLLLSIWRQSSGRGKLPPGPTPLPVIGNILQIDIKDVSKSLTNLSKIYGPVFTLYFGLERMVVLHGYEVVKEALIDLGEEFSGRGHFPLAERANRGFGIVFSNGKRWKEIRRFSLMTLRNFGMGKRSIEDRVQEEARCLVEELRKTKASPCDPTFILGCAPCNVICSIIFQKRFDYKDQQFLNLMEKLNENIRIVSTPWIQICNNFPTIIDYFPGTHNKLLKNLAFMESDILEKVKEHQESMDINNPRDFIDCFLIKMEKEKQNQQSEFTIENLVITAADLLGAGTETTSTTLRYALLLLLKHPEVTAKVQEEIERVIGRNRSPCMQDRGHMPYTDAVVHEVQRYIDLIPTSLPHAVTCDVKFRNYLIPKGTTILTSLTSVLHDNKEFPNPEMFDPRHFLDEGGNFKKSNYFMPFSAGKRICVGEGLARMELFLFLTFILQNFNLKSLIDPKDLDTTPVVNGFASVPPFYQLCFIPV

Row | Solubility in biologically relevant media ([1]; biologically relevant media) | solubility at 4 h ([1]; FaSSIF (Simulated Fasted State Intestinal Fluid pH 6.5)) [µg/mL] | solubility at 4 h ([1]; FeSSIF (Simulated Fed State Intestinal Fluid pH 6.5)) [µg/mL] | solubility at 4 h ([1]; SGF (Simulated Gastric Fluid pH 1.6)) [µg/mL] | solubility at 4 h ([1]; water (purified water), Water) [µg/mL] | Rate of hydrolysis to CPHPC in human liver microsomes [2] | IC50 (CYP1A2) [µM] | Compound hydrolysed after 24 h [3] | IC50 (CYP2C9) [µM] | IC50 (CYP3A4; [5]) [µM] | IC50 (CYP3A4; [6]) [µM] | IC50 (CYP2D6) [µM] | IC50 (CYP2C19) [µM] | Rate of hydrolysis in human intestinal microsomes [4] | Structure (SMILES)
1 | highly soluble | 4400 | 5000 | 5200 | 5500 | high rate of hydrolysis | > 33 | Less than 20% | > 33 | > 33 | > 33 | > 33 | > 33 | low rate of hydrolysis | O=C(OCOC(=O)[C@H]1CCCN1C(=O)CCCCC(=O)N1CCC[C@@H]1C(=O)OCOC(=O)OC1CCOCC1)OC1CCOCC1 [Compound of Formula (I), (2R,2′R)-Bis(((((tetrahydro-2H-pyran-4-yl)oxy)carbonyl)oxy)methyl) 1,1′-adipoylbis(pyrrolidine-2-carboxylate)]
2 |  |  |  |  |  |  | > 33 |  | > 33 | > 33 | > 33 | > 33 | > 33 |  | O=C(OCOC(=O)[C@H]1CCCN1C(=O)CCCCC(=O)N1CCC[C@@H]1C(=O)O)OC1CCOCC1 [mono-ester derivative, (R)-1-(6-oxo-6-((R)-2-((((((tetrahydro-2H-pyran-4-yl)oxy)carbonyl)oxy)methoxy)carbonyl)pyrrolidin-1-yl)hexanoyl)pyrrolidine-2-carboxylic acid]
